Results: BindingDB's records for doi:10.1021/jm00163a033 (University of Massachusetts Medical School, 1990)

Biological target: Thymidine kinase (Human herpesvirus 2)
Assay: Inhibition of TdR phosphorylation using thymidine kinase (TK) assay for herpes simplex virus type 2 (HSV-2).

Row | Ki | SMILES
1 | 2 µM | CCCCCCNC1=NC(=O)C2N=CN([C@H]3C[C@H](O)[C@@H](CO)O3)C2=N1 (stereo partly specified)

Biological target: Thymidine kinase (Human herpesvirus 2)
Assay: as above
Remark: another data set of the same source

Row | SMILES | IC50
2 | O=c1[nH]c(NCCCCCO)nc2nc[nH]c12 | 40 µM
3 | O=c1[nH]c(Nc2ccc(C(F)(F)F)cc2)nc2nc[nH]c12 | 40 µM
4 | O=c1[nH]c(Nc2cccc(CO)c2)nc2nc[nH]c12 | 20 µM
5 | O=c1[nH]c(Nc2ccc(O)cc2)nc2nc[nH]c12 | 20 µM
6 | O=c1[nH]c(Nc2ccc(Br)cc2)nc2nc[nH]c12 | 0.6 µM
7 | O=c1[nH]c(Nc2cccc(Cl)c2)nc2nc[nH]c12 | 0.35 µM
8 | O=c1[nH]c(Nc2cccc(C(F)(F)F)c2)nc2nc[nH]c12 [2-(3-Trifluoromethyl-phenylamino)-1,9-dihydro-purin-6-one] | 0.1 µM
9 | CCCCCCNc1nc2nc[nH]c2c(=O)[nH]1 [2-Hexylamino-1,9-dihydro-purin-6-one] | 10 µM

Results, then the compound that gave them:

Row | IC50 | SMILES
10 | 10 µM | O=c1[nH]c(Nc2ccc3ccccc3c2)nc2nc[nH]c12
11 | 5.5 µM | O=c1[nH]c(NCc2ccc(Cl)cc2)nc2nc[nH]c12
12 | 2.5 µM | O=c1[nH]c(Nc2ccc(F)c(Cl)c2)nc2nc[nH]c12
13 | 1.3 µM | O=c1[nH]c(Nc2ccc(Br)c(Br)c2)nc2nc[nH]c12
14 | 6 µM | Cc1ccc(Nc2nc3nc[nH]c3c(=O)[nH]2)cc1
15 | 2.2 µM | O=c1[nH]c(Nc2ccc(F)c(F)c2)nc2nc[nH]c12
16 | 4 µM | CCc1cccc(Nc2nc3nc[nH]c3c(=O)[nH]2)c1
